Test results from patent publication EP4818169A1, “CRYSTAL FORM OF COMPOUND SALT, PREPARATION METHOD THEREFOR AND USE THEREOF” (Apeiron Therapeutics (Hong Kong) Ltd., priority 2024, dated 2025).
Converted amounts (≈) assume the structure as drawn.

Tests used:
[1] = Hygroscopicity by dynamic vapor sorption (DVS) test; type: physicochemical; details: for hygroscopic weight gain: DVS, 25°C, from 0% RH to 80% RH; for crystalline form after the DVS test: XRPD before and after DVS test
Protocol: Moisture adsorption and desorption data were obtained using a dynamic vapor sorption device (Model TA Discovery SA). Samples were equilibrated at 25°C/0% RH for 300 min at the start of the experiment. Thereafter, humidity was varied from 0% to 95% RH in 5% RH increments, with nitrogen used to control and maintain the humidity. Equilibration during testing was defined as a mass change rate of < 0.02% per minute over 10 min, with a maximum equilibration time of 120 min.
From 0% RH to 80% RH, the hygroscopic weight gain was approximately 0.25%, indicating very low hygroscopicity.

[2] = Physicochemical stability on open storage (XRPD and HPLC); details: for Crystalline Form Change: merged cell for all storage conditions (40°C/75%RH, 60 °C, 25°C/60%RH, open) and times (2 and 4 weeks), XRPD
Protocol: The high performance liquid chromatography (HPLC) method for determining enantiomeric excess (%) used in the present application is shown in Table 5.
The purity testing method described in the present application is shown as follows.
For chemical stability studies, two open samples were prepared at each time point for each condition. Approximately 2 mg of maleate crystalline form A was transferred into a 20 mL glass vial, which was then covered with perforated aluminum foil to serve as an open sample. Samples were stored at 25°C/60% RH, 40°C/75% RH, and 60°C.
For physical stability studies, two open samples were prepared at each time point for each condition. Approximately 10 mg of maleate crystalline form A was transferred into a 20 mL glass vial, which was covered with perforated aluminum foil to serve as an open sample. Samples were stored at 25°C/60% RH, 40°C/75% RH, and 60°C.
All samples were stored for 4 weeks under the specified storage conditions. At predetermined time points (initial, 2 weeks, and 4 weeks), the corresponding samples were withdrawn and subject to chemical and physical evaluations, respectively. The physicochemical stability was assessed by XRPD and HPLC.
For chemical stability studies, two open samples were prepared at each time point for each condition. Approximately 2 mg of p-toluenesulfonate crystalline form A was transferred into a 20 mL glass vial, which was then covered with perforated aluminum foil to serve as an open sample. Samples were stored at 25°C/60% RH, 40°C/75% RH, and 60°C.
For physical stability studies, two open samples were prepared at each time point for each condition. Approximately 10 mg of p-toluenesulfonate crystalline form A was transferred into a 20 mL glass vial, which was covered with perforated aluminum foil to serve as an open sample. Samples were stored at 25°C/60% RH, 40°C/75% RH, and 60°C, respectively.

[3] = Mechanical stability: jet milling; type: physicochemical; details: feed and milling pressure 5.5 bar, 23 °C; XRPD
Protocol: The milled powder was then analyzed by XRPD and PLM, with results shown in Figure 27 and Figure 28, respectively.

[4] = Mechanical stability: pressurization method; type: physicochemical; details: 40 MPa held for 1 min, 5 mm die; XRPD
Protocol: Pressurization method: Maleate crystalline form A was weighed and transferred into a 5 mm-diameter die. The upper piston was then manually driven down into the die until a pressure of 40 MPa was reached and held for 1 min. Subsequently, the sample was removed and manually ground into a powder. Finally, the resulting powder was analyzed by XRPD.

[5] = Stability of the crystalline form in the formulation (tablet compression with microcrystalline cellulose); type: physicochemical; details: 50% (w/w) with microcrystalline cellulose PH102, tablets compressed at 4.2 kN and 9.2 kN; XRPD
Protocol: Equal amounts of maleate crystalline form A and microcrystalline cellulose PH102 were weighed to prepare a powder formulation comprising 50% (w/w) maleate crystalline form A, and the two components were mixed thoroughly.
A total of 200 mg of the uniformly mixed powder was transferred into an 8 mm-diameter die of a rotary tablet press. One tablet was compressed at 4.2 kN and another at 9.2 kN.
The resulting tablets were characterized for weight and hardness.

[6] = Dynamic solubility in different media (HPLC); type: physicochemical; details: for Crystalline Form Change / Solubility / pH: 24 h; for Crystalline Form Change: XRPD of precipitated solids; for Solubility: 37°C; for solubility at 24 h: 37 °C, thermodynamic from solid; for pH: pH of supernatant
Protocol: The preparation method of simulated gastrointestinal fluid involved in the present disclosure is: SGF: Transfer 2.02 g of sodium chloride into a 1000 mL beaker and add 950 mL of purified water to dissolve. Next, adjust the pH to 1.2 with 12 N hydrochloric acid. Transfer the solution to a 1000 mL volumetric flask and make up to 1000 mL with purified water.
FeSSIF: Transfer 4.04 g of sodium hydroxide, 8.65 g of acetic acid, and 11.87 g of sodium chloride into a 1000 mL volumetric flask, and dissolve with 950 mL of purified water. Titrate the obtained solution to pH 5.0 with 1M sodium hydroxide or 1M hydrochloric acid aqueous solution, and then make up to 1000 mL with purified water. Finally, weigh 11.20 g of SIF powder, add it to the above 1000 mL of pH 5.0 solution, and stir magnetically until clear.
A total of 10 mg of maleate crystalline form A was transferred into a dry, clean 4 mL glass vial. Then, 1 mL of simulated gastric fluid (SGF), fed state simulated intestinal fluid (FeSSIF), or purified water was added to the vial. All vials were placed on a shaker and agitated at 200 rpm at 37°C.
At the predetermined time point (24 h), 200 µL of the sample was withdrawn from the vial into a centrifuge tube and centrifuged at 90,000 rpm for 5 min. An appropriate amount of the supernatant was then diluted and analyzed by HPLC to determine the solubility.
The remaining 800 µL of suspension in the vial was centrifuged at 8000 rpm for 10 min. The pH of the resulting supernatant was measured, and the precipitated solids were vacuum-dried at 40°C for approximately 16 h. The dried precipitated solids were then characterized by X-ray powder diffraction.
A total of 10 mg of p-toluenesulfonate crystalline form A was transferred into a dry, clean 4 mL glass vial. Then, 1 mL of simulated gastric fluid (SGF), fed state simulated intestinal fluid (FeSSIF), or purified water was added to the vial. All vials were placed on a shaker and agitated at 200 rpm at 37°C.
At the predetermined time point (24 h), 200 µL of the sample was withdrawn from the vial into a centrifuge tube and centrifuged at 90,000 rpm for 5 min. An appropriate amount of the supernatant was then diluted and analyzed by high performance liquid chromatography to determine the solubility.

Structure (SMILES) | hygroscopic weight gain [1] | crystalline form after the DVS test [1] | Appearance ([2]; 25°C/60%RH (Open), 2 weeks) | Purity (%) ([2]; 25°C/60%RH (Open), 2 weeks) | ee (%) ([2]; 25°C/60%RH (Open), 2 weeks) | Appearance ([2]; 25°C/60%RH (Open), 4 weeks) | Purity (%) ([2]; 25°C/60%RH (Open), 4 weeks) | ee (%) ([2]; 25°C/60%RH (Open), 4 weeks) | Appearance ([2]; 40°C/75%RH (Open), 2 weeks) | Purity (%) ([2]; 40°C/75%RH (Open), 2 weeks) | ee (%) ([2]; 40°C/75%RH (Open), 2 weeks) | Appearance ([2]; 40°C/75%RH (Open), 4 weeks) | Purity (%) ([2]; 40°C/75%RH (Open), 4 weeks) | ee (%) ([2]; 40°C/75%RH (Open), 4 weeks) | Appearance ([2]; 60 °C (Open), 2 weeks) | Purity (%) ([2]; 60 °C (Open), 2 weeks) | ee (%) ([2]; 60 °C (Open), 2 weeks) | Appearance ([2]; 60 °C (Open), 4 weeks) | Purity (%) ([2]; 60 °C (Open), 4 weeks) | ee (%) ([2]; 60 °C (Open), 4 weeks) | other results
CN(C(=O)c1ccc2nc(N)c3cncn3c2c1)[C@@H]1COc2cc(C(F)(F)F)ccc21 [Maleate crystalline form A, (S)-4-amino-N-methyl-N-(6-(trifluoromethyl)-2,3-dihydrobenzofuran-3-yl)imidazo[1,5-a]quinoxaline-8-carboxamide] | approximately 0.25% | did not change | Off-white powder | 99.68% | 100.00% | Off-white powder | 99.67% | 100.00% | Off-white powder | 99.69% | 100.00% | Off-white powder | 99.67% | 100.00% | Off-white powder | 99.69% | 100.00% | Off-white powder | 99.67% | 100.00% | Appearance ([2]; Initial): Off-white powder; Purity (%) ([2]; Initial): 99.66%; ee (%) ([2]; Initial): 100.00%; Crystalline Form Change [2]: None; crystalline form after jet milling [3]: retained its crystalline form; crystalline form after pressurization [4]: retained its crystalline form; crystallinity in the formulation [5]: remained relatively stable; Crystalline Form Change ([6]; FeSSIF): None; Solubility ([6]; H2O): 42.12 µg/mL; Crystalline Form Change ([6]; H2O): None; Crystalline Form Change ([6]; SGF): None; solubility at 24 h ([6]; fed state simulated intestinal fluid (FeSSIF), pH 5, fessif, FeSSIF): 258 µg/mL; pH ([6]; FeSSIF): 4.83; pH ([6]; H2O): 4.17; pH ([6]; SGF): 0.96; solubility at 24 h ([6]; simulated gastric fluid (SGF), pH 1.2, simulated gastric fluid, SGF): 443 µg/mL
CN(C(=O)c1ccc2nc(N)c3cncn3c2c1)[C@@H]1COc2cc(C(F)(F)F)ccc21 [p-toluenesulfonate crystalline form A, (S)-4-amino-N-methyl-N-(6-(trifluoromethyl)-2,3-dihydrobenzofuran-3-yl)imidazo[1,5-a]quinoxaline-8-carboxamide] | approximately 0.37% | did not change | Off-white powder | 99.83% | 100.00% | Off-white powder | 99.84% | 100.00% | Off-white powder | 99.84% | 100.00% | Off-white powder | 99.80% | 100.00% | Off-white powder | 99.66% | 100.00% | Off-white powder | 99.50% | 100.00% | Appearance ([2]; Initial): Off-white powder; Purity (%) ([2]; Initial): 99.81%; ee (%) ([2]; Initial): 100.00%; Crystalline Form Change [2]: None; Solubility ([6]; FeSSIF): 365.38 µg/mL (≈ 855 µM); Crystalline Form Change ([6]; FeSSIF): None; Solubility ([6]; H2O): 248.78 µg/mL (≈ 582 µM); Crystalline Form Change ([6]; H2O): None; Solubility ([6]; SGF): 293.98 µg/mL (≈ 688 µM); Crystalline Form Change ([6]; SGF): None; pH ([6]; FeSSIF): 4.78; pH ([6]; H2O): 3.19; pH ([6]; SGF): 0.98
